Data: US10106572B1, “Supramolecular hacky sacks (SHS), method of synthesis and applications thereof” (University of Puerto Rico, priority 2014, dated 2018)
“And” between values parts separate entries of the source, which are not always exact repeats. Equal entries are not always repeated. Values belong to the compound of their own block, whether it stands above or below them.

Key:
[1] = system: neuroblastoma (SH-SY5Y) cells; assay: MTT viability assay; assay type: cell-based, human; settings: 0.2 μM DOX
[2] = pKa estimation by UV-VIS absorbance at different pHs; assay type: physicochemical; settings: UV absorbance at pH 5-7.5
Excerpt: During the synthesis of derivatives ImAGhD2OH and ImAGpD2OH, an ImAG std (with a molecular structure as shown in FIG. 8) was constructed to obtain information of the pKa of the derivative by UV-VIS measurements. This allowed to study the effect of the functionality added in the 8ArG derivative. Derivative (E)-3-(1-methyl-1H-imidazol-2-yl)-1-phenylprop-2-en-1-one (ImAG std), with a chemical formula C13H12N2O, offers an alternative method to determine the pKa without having to perform the entire synthetic sequence for the corresponding compounds ImAGhD2OH and ImAGpD2OH. In the case of ImAG standard, the same procedure as above was followed, but the obtained solid was washed with ether and hexane. ImAG std was characterized as shown in FIG. 9 and FIG. 10 by using ^1H NMR and ^13C NMR, respectively. Yellow solid, mp (125.2-126.3) ° C. […]
Before the imidazole modification of ImAGpD2OH and ImAGhD2OH, chalcone imidazole standard derivative (E)-3-(1-methyl-1H-imidazol-2-yl)-1-phenylprop-2-en-1-one (ImAG std) was synthesized by the same aldol condensation method to obtain an estimation of the pKa by measuring the absorbance at different pHs in a Varian UV-visible spectrometer, Model Cary Bio-100 as shown in FIG. 14. For the transition pH measurement, Isothermal measurements at 26.0° C. were performed in a SPECTRAmax 340 microplate reader at 650 nm. […]

[3] = Differential scanning calorimetry (DSC) of SGQ assemblies; assay type: physicochemical; settings: for Tt: LCST transition
Description: The ΔGcal and ΔScal values shown in this table correspond to those calculated using the values of Tt, Tm, and ΔHcal from the instrument. All ΔG values were calculated at a temperature of 20° C.
Differential Scanning calorimetry (DSC) analyses were performed on a VP-DSC Micro-Calorimeter from MicroCal and Origin (v.7) was used for data processing. For the experiment, the buffer was first degasified and the experiment was carried out as a blank in both sample and reference cell. Then, the sample was degasified, and the blank buffer in the sample cell to be substituted with sample was removed. Afterwards, the experiment was performed with a temperature ramp of 0° C.-80° C. for 4 cycles.

[4] = Turbidimetry studies, cloud-point temperature (Tcp); assay type: physicochemical
Description: (§1) Solutions of 0.650 mL of ImAGhD2OH were prepared at 5 mM with 4 M KI. In the case of ImAGpD2OH, the solutions prepared were 5 mM with 2 M KI. By following this procedure the following ratio is recommended between ImAGhD2OH (or ImAGpD2OH) with KI salt: 0-10 mM of ImAGhD2OH (or ImAGpD2OH) with 2-4 M KI. To dissolve the solids it was prepared a 0.1 M sodium acetate buffer for pH values of 5, 5.1, 5.2, 5.3, 5.4, 5.5, 5.6, 5.7, 5.8, 5.9. For pH 6-7, PBS from Fisher Scientific was used. The samples were put in the refrigerator (−10° C.) overnight (˜12 h) for equilibration. This sample concentration was used for turbidity experiments, DSC, and DLS experiments. The concentrations of the resulting assemblies of SGQ and f-SHS were calculated in terms of the molecular weights of monomeric 8ArG derivative ImAGpD2OH or ImAGhD2OH.
This Tcp, which is measured by turbidimetry studies in UV-Vis, is the transition temperature to form the cluster of self-arranged supramolecular structures known as supramolecular hacky sacks (SHS). The turbidity measurements were performed at 650 nm using a Varian UV-visible spectrometer, Model Cary Bio-100. The heating rate was adjusted at 2.0° C./min using Cary temperature controller apparatus from Varian.

[5] = Isothermal turbidity, transition pH; assay type: physicochemical; settings: for pKa: previously estimated, imidazole-containing ImAG
Description: as §1
Before the imidazole modification of ImAGpD2OH and ImAGhD2OH, chalcone imidazole standard derivative (E)-3-(1-methyl-1H-imidazol-2-yl)-1-phenylprop-2-en-1-one (ImAG std) was synthesized by the same aldol condensation method to obtain an estimation of the pKa by measuring the absorbance at different pHs in a Varian UV-visible spectrometer, Model Cary Bio-100 as shown in FIG. 14. For the transition pH measurement, Isothermal measurements at 26.0° C. were performed in a SPECTRAmax 340 microplate reader at 650 nm. In these experiments 100 μL of sample was added in each well in triplicate for pH: 5, 5.1, 5.2, 5.3, 5.4, 5.5, 5.6, 5.7, 5.8, 5.9, 6.0, 6.5, 7.0 and 7.5. After the microplate wells were filled, the microplate was placed in the refrigerator (−10° C.) for equilibration. Afterwards, an 85% weighted curve fit was performed to the obtained graph. According to the standard experiments performed, the pKa of ImAG std is between 5.5 and 6.
Aside from the effect of the pH on the precise assembly of the nanoglobular SGQs, we observed, at 26° C., a pH-responsive phase transition where, at pH 5 the system is in solution, but changing it to pH 7 results in the solution becoming cloudy.

[6] = ImAGhD2OH, pH 5.0, calculated at 20° C.
[7] = ImAGhD2OH, pH 5.5, calculated at 20° C.
[8] = ImAGhD2OH, pH 6:0, calculated at 20° C.
[9] = ImAGhD2OH, pH 6.5, calculated at 20° C.
[10] = ImAGhD2OH, pH 7.0, calculated at 20° C.
[11] = ImAGpD2OH, pH 5.0, calculated at 20° C.
[12] = ImAGpD2OH, pH 7.0, calculated at 20° C.

Compound: COc1cccc2c1C(=O)c1c(O)c3c(c(O)c1C2=O)C[C@@](O)(C(=O)CO)C[C@@H]3O[C@H]1C[C@H](N)[C@H](O)[C@H](C)O1 [DOX, doxorubicin]
cytotoxicity (MTT) [1]: cytotoxic

pKa [2]: 5.5 to 6
Compound: Cn1ccnc1/C=C/C(=O)c1ccccc1 [ImAG std, (E)-3-(1-methyl-1H-imidazol-2-yl)-1-phenylprop-2-en-1-one]

ΔHTm ([3]; ImAGhD2OH, pH 5.0): 64.32 kcal/mol
ΔSTm ([3]; ImAGhD2OH, pH 5.0): 0.884 kcal/mol · ° C.
ΔSTt ([3]; ImAGhD2OH, pH 5.0): 0.778 kcal/mol · ° C.
Tt ([3]; ImAGhD2OH, pH 5.0, aqueous solution): 59.3 °C and 59.26 °C
ΔGT: [3, 6]: 30.67 kcal/mol
ΔGTm [3, 6]: 46.64 kcal/mol
Tm ([3]; ImAGhD2OH, pH 5.0, melting of SGQ assembly): 72.7 °C and 72.72 °C
ΔHTm ([3]; ImAGhD2OH, pH 5.5): 62.58 kcal/mol
ΔHTt ([3]; ImAGhD2OH, pH 5.5): 146 kcal/mol and 146.0 kcal/mol
ΔSTm ([3]; ImAGhD2OH, pH 5.5): 0.912 kcal/mol · ° C.
ΔSTt ([3]; ImAGhD2OH, pH 5.5): 2.704 kcal/mol · ° C.
Tt ([3]; ImAGhD2OH, pH 5.5, aqueous solution): 54.00 °C
ΔGT: [3, 7]: 91.92 kcal/mol
ΔGTm [3, 7]: 44.34 kcal/mol
Tm ([3]; ImAGhD2OH, pH 5.5, melting of SGQ assembly): 68.64 °C
ΔHTm ([3]; ImAGhD2OH, pH 6:0): 11.20 kcal/mol
ΔHTt ([3]; ImAGhD2OH, pH 6:0): 0.123 kcal/mol
ΔSTm ([3]; ImAGhD2OH, pH 6:0): 0.272 kcal/mol · ° C.
ΔSTt ([3]; ImAGhD2OH, pH 6:0): 0.0216 kcal/mol · ° C.
Tt ([3]; ImAGhD2OH, pH 6:0, aqueous solution): 5.702 °C
ΔGT: [3, 8]: -0.309 kcal/mol
ΔGTm [3, 8]: 5.76 kcal/mol
Tm ([3]; ImAGhD2OH, pH 6:0, melting of SGQ assembly): 41.12 °C
ΔHTm ([3]; ImAGhD2OH, pH 6.5): 11.80 kcal/mol
ΔHTt ([3]; ImAGhD2OH, pH 6.5): 0.0522 kcal/mol
ΔSTm ([3]; ImAGhD2OH, pH 6.5): 0.316 kcal/mol · ° C.
ΔSTt ([3]; ImAGhD2OH, pH 6.5): 0.0106 kcal/mol · ° C.
Tt ([3]; ImAGhD2OH, pH 6.5, aqueous solution): 4.938 °C
ΔGT: [3, 9]: -0.160 kcal/mol
ΔGTm [3, 9]: 5.48 kcal/mol
Tm ([3]; ImAGhD2OH, pH 6.5, melting of SGQ assembly): 37.32 °C
ΔHTm ([3]; ImAGhD2OH, pH 7.0): 15.42 kcal/mol
ΔHTt ([3]; ImAGhD2OH, pH 7.0): 0.078 kcal/mol and 0.0784 kcal/mol
ΔSTm ([3]; ImAGhD2OH, pH 7.0): 0.362 kcal/mol · ° C.
ΔSTt ([3]; ImAGhD2OH, pH 7.0): 0.0144 kcal/mol · ° C.
Tt ([3]; ImAGhD2OH, pH 7.0, aqueous solution): 5.4 °C and 5.449 °C
ΔGT: [3, 10]: -0.210 kcal/mol
ΔGTm [3, 10]: 8.18 kcal/mol
Tm ([3]; ImAGhD2OH, pH 7.0, melting of SGQ assembly): 42.6 °C and 42.64 °C
ΔTt ([3]; between oSGQ (pH 7) and hSGQ (pH 5)): ≈ 53.9 °C
ΔTcp ([4]; between hSGQ and oSGQ): ≈ 25 °C
cloud-point temperature (Tcp) ([4]; oSGQ, pH 6-7, 650 nm): around 4 °C
cloud-point temperature (Tcp) ([4]; protonated hSGQ, at pHs and 5.5, 650 nm): 29 °C
pKa [5]: 5.7
transition pH ([5]; transmittance at 650 nm, 26° C., at 65% of the transmittance): around 5.7
Compound: Cn1ccnc1/C=C/C(=O)c1cccc(-c2nc3c(=O)[nH]c(N)nc3n2[C@H]2C[C@H](OC(=O)CCCCCn3cc(COC(=O)C(C)(CO)CO)nn3)[C@@H](COC(=O)CCCCCn3cc(COC(=O)C(C)(CO)CO)nn3)O2)c1 [ImAGhD2OH]

ΔHTm ([3]; ImAGpD2OH, pH 5.0): 57.01 kcal/mol
ΔHTt ([3]; ImAGpD2OH, pH 5.0): 8.41 kcal/mol
ΔSTm ([3]; ImAGpD2OH, pH 5.0): 0.808 kcal/mol · ° C.
ΔSTt ([3]; ImAGpD2OH, pH 5.0): 0.167 kcal/mol · ° C.
Tt ([3]; ImAGpD2OH, pH 5.0, aqueous solution): 50.5 °C and 50.45 °C
ΔGT: [3, 11]: 5.07 kcal/mol
ΔGTm [3, 11]: 40.85 kcal/mol
Tm ([3]; ImAGpD2OH, pH 5.0, melting of SGQ assembly): 70.52 °C
ΔHTm ([3]; ImAGpD2OH, pH 7.0): 101.3 kcal/mol
ΔHTt ([3]; ImAGpD2OH, pH 7.0): 4.36 kcal/mol
ΔSTm ([3]; ImAGpD2OH, pH 7.0): 1.805 kcal/mol · ° C.
ΔSTt ([3]; ImAGpD2OH, pH 7.0): 0.505 kcal/mol · ° C.
Tt ([3]; ImAGpD2OH, pH 7.0, aqueous solution): 8.6 °C and 8.631 °C
ΔGT: [3, 12]: -5.74 kcal/mol
ΔGTm [3, 12]: 65.20 kcal/mol
Tm ([3]; ImAGpD2OH, pH 7.0, melting of SGQ assembly): 56.11 °C
Tcp ([4]; hSGQ at pH 5): 42 °C
shift of ΔTcp ([4]; hSGQ at pH 5, relative to ImAGhD2OH): 13 °C
Tcp ([4]; oSGQ at pH 7): 15 °C
shift of ΔTcp ([4]; oSGQ at pH 7, relative to ImAGhD2OH): 10 °C
pKa [5]: 5.7
Compound: Cn1ccnc1/C=C/C(=O)c1cccc(-c2nc3c(=O)[nH]c(N)nc3n2[C@H]2C[C@H](OC(=O)CCCCn3cc(COC(=O)C(C)(CO)CO)nn3)[C@@H](COC(=O)CCCCn3cc(COC(=O)C(C)(CO)CO)nn3)O2)c1 [ImAGpD2OH]
